Data: ChEMBL document CHEMBL1153384, “Synthesis, antimalarial activity, and preclinical pharmacology of a novel series of 4'-fluoro and 4'-chloro analogues of amodiaquine. Identification of a suitable "back-up" compound for N-tert-butyl isoquine” (J Med Chem, 2009)

Experiments:
[1] = Oral bioavailability in mouse; type: ADME, organism-based; settings: in vivo
[2] = Oral bioavailability in rat; type: ADME, organism-based; settings: in vivo
[3] = system: Plasmodium yoelii; assay: Antimalarial activity as reduced parasitaemia against Plasmodium yoelii 17X infected CD1 mice (Mus musculus) perorally dosed daily for 4 days; type: functional; settings: po, 96 h
[4] = Clearance in iv dosed rat; type: ADME, organism-based; settings: in vivo
[5] = system: Plasmodium yoelii; assay: Antimalarial activity as minimal concentration for parasite elimination at day 23 against Plasmodium yoelii 17X intravenously inoculated CD1 mice (Mus musculus) dosed 1 hrs post infection then daily for 4 days
[6] = Clearance in iv dosed mouse; type: ADME, organism-based; settings: in vivo
[7] = system: Plasmodium falciparum; assay: Antimalarial activity against chloroquine-sensitive Plasmodium falciparum 3D7; type: functional, organism-based
[8] = system: Plasmodium falciparum; assay: Antimalarial activity against chloroquine-sensitive Plasmodium falciparum HB3; type: functional, organism-based
[9] = system: Plasmodium falciparum; assay: Antimalarial activity against chloroquine-resistant Plasmodium falciparum TM6; type: functional, organism-based
[10] = system: Heme; assay: Binding affinity to heme assessed as binding constant for stepwise binding of 2 molecules of heme to 1 equivalent of drug in presence of 40% DMSO by UV-visible spectroscopy
[11] = system: Heme; assay: Binding affinity to heme assessed as binding constant for stepwise binding of 2 equivalent of drug to 1 molecule of heme in presence of 40% DMSO by UV-visible spectroscopy
[12] = molecular target: β-hematin formation (no protein target); assay: Inhibition of beta-hematin formation as molar equivalent relative to hemin causing blockade in BHIA
[13] = molecular target: Cytochrome P450 2C9 (Homo sapiens, UniProt P11712); assay: Inhibition of human CYP2C9; type: ADME
Sequence of Cytochrome P450 2C9 (P11712 whole entry): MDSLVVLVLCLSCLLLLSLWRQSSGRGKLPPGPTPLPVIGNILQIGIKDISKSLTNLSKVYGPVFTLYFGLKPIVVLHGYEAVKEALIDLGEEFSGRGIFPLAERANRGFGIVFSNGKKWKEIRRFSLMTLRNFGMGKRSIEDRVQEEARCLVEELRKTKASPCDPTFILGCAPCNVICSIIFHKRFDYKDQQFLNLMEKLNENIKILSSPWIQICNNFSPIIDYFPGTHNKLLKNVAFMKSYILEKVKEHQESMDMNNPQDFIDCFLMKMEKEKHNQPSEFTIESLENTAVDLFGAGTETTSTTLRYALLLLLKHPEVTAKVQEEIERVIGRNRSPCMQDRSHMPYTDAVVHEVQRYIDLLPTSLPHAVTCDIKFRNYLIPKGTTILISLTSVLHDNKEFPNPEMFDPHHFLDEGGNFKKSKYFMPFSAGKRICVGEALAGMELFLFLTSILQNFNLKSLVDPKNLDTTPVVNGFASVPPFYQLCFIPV

[14] = molecular target: Cytochrome P450 2D6 (Homo sapiens, UniProt P10635); assay: Inhibition of human CYP2D6; type: ADME
Sequence of Cytochrome P450 2D6 (P10635 whole entry): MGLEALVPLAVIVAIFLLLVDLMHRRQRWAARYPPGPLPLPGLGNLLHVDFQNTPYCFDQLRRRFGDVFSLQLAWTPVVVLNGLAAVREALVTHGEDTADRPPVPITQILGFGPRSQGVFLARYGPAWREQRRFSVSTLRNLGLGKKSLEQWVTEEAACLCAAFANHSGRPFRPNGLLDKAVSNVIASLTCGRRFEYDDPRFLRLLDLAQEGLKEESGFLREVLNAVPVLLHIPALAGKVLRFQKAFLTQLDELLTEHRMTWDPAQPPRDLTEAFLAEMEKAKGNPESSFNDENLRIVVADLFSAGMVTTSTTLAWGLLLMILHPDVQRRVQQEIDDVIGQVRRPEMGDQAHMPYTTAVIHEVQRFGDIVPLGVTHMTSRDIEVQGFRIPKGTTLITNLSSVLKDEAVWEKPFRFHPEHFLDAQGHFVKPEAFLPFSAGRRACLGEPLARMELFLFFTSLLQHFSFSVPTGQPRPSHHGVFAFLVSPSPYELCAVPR

[15] = molecular target: Cytochrome P450 2C19 (Homo sapiens, UniProt P33261); assay: Inhibition of human CYP2C19; type: ADME
Sequence of Cytochrome P450 2C19 (P33261 whole entry): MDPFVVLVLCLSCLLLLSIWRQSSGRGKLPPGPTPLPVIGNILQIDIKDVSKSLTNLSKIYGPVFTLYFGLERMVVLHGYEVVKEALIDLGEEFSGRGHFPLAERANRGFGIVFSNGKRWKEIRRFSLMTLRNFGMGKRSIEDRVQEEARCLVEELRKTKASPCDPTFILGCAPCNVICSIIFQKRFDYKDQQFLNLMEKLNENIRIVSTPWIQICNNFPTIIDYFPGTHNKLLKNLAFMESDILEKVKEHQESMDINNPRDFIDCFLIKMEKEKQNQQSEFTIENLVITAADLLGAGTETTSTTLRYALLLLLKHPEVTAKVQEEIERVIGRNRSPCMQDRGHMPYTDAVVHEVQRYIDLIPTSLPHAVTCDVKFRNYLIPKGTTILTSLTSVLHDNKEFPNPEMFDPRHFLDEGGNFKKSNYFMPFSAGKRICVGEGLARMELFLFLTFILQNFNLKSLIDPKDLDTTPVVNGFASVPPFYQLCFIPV

[16] = molecular target: T1, Cytochrome P450 1A2 (Homo sapiens, UniProt P05177); assay: Inhibition of human CYP1A2; type: ADME
T1 sequence (P05177 whole entry): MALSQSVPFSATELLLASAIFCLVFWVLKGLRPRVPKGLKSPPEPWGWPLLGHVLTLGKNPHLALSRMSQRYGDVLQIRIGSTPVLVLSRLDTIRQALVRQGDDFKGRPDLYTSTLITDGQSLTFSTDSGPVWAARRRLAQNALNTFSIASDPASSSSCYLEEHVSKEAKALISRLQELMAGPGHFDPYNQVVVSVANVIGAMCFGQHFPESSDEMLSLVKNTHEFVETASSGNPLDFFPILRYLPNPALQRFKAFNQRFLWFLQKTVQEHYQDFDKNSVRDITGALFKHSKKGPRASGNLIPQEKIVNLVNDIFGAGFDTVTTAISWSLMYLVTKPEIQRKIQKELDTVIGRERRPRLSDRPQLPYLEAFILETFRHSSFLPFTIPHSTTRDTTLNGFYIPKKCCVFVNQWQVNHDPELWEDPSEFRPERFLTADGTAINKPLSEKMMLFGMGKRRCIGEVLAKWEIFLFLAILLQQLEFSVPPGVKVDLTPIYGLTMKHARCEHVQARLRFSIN

[17] = molecular target: T2, Cytochrome P450 2C8 (Homo sapiens, UniProt P10632); assay: Inhibition of human CYP2C8; type: ADME
T2 sequence (P10632 whole entry): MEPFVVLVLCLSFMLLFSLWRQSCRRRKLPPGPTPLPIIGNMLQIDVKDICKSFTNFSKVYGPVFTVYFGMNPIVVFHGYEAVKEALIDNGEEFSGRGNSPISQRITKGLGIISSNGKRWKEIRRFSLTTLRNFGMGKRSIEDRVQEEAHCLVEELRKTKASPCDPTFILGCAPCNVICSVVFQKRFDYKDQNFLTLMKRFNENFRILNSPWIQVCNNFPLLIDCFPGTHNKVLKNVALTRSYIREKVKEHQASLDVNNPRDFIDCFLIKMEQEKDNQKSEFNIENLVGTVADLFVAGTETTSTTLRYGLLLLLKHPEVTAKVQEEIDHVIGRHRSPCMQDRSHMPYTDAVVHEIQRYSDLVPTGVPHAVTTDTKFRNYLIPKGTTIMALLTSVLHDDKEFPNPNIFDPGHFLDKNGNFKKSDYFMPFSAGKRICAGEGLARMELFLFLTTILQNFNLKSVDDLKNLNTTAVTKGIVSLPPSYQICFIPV

[18] = molecular target: T3, Cytochrome P450 3A4 (Homo sapiens, UniProt P08684); assay: Inhibition of human CYP3A4 using DEF substrate; type: ADME
T3 sequence (P08684 whole entry): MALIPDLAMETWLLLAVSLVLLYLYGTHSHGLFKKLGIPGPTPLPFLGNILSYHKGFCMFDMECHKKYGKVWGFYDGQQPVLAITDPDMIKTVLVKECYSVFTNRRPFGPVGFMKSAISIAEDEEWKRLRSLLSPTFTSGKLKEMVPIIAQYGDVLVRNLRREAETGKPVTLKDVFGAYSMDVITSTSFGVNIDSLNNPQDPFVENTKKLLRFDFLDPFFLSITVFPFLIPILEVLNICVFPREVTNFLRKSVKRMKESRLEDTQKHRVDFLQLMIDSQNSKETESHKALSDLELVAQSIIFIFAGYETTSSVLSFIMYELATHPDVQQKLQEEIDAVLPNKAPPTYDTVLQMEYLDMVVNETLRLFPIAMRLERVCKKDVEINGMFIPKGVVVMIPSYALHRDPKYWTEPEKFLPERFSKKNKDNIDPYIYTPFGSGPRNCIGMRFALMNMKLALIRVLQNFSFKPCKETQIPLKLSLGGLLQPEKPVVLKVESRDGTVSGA

[19] = molecular target: T3, Cytochrome P450 3A4; assay: Inhibition of human CYP3A4 using PPR substrate; type: ADME; settings: read-out: IC50
[20] = Partition coefficient, log P of the compound; type: physicochemical; settings: octanol/water
[21] = Toxicity in po dosed mouse assessed as drug level causing no observed adverse effects administered as once daily for 4 days; type: organism-based; settings: in vivo, read-out: Activity
[22] = system: Mus musculus; assay: Toxicity in po dosed mouse assessed as induction of hepatotoxicity at drug dose above no observed adverse effects level; type: organism-based; settings: in vivo
[23] = Toxicity in po dosed mouse assessed as drug level causing no observed adverse effects administered as single dose; type: organism-based; settings: in vivo, read-out: Activity
[24] = system: Mus musculus; assay: Toxicity in po dosed mouse assessed as induction of hematological toxicity at drug dose above no observed adverse effects level; type: organism-based; settings: in vivo
[25] = system: Heme
[26] = system: Heme; remark: listed apart in the source

CCNCc1ccc(Nc2ccnc3cc(Cl)ccc23)cc1O [DESETHYL ISOQUINE]
bioavailability [1]: 100% | bioavailability [2]: 60% | ED50 [3]: 5.5 mg/kg | ED90 [3]: 8 mg/kg | clearance [4]: 61.5 mL/min/kg | Activity [5]: >40 mg/kg | clearance [6]: 43.5 mL/min/kg

CCN1CCN(Cc2cc(Nc3ccnc4cc(Cl)ccc34)ccc2Cl)CC1
IC50 [7]: 39.7 nM | IC50 [8]: 9.6 nM | IC50 [9]: 10.3 nM

C=C[C@H]1CN2CC[C@H]1C[C@H]2[C@H](O)c1ccnc2ccc(OC)cc12
log Ks [10]: 4.1 | log Ks [11]: 4.4

CC(C)(C)NCc1ccc(Nc2ccnc3cc(Cl)ccc23)cc1O
IC50 [7]: 6 nM

CCN(CC)Cc1cc(Nc2ccnc3cc(Cl)ccc23)ccc1F
IC50 [7]: 27.3 nM

CCCCN(CCCC)Cc1cc(Nc2ccnc3cc(Cl)ccc23)ccc1F
IC50 [7]: 95.2 nM

OC(c1cc(C(F)(F)F)nc2c(C(F)(F)F)cccc12)C1CCCCN1 (stereo not drawn)
log Ks [10]: 3.17 | log Ks [11]: 3.84

Fc1ccc(Nc2ccnc3cc(Cl)ccc23)cc1Cn1ccnc1
IC50 [12]: 1.78 molar ratio | IC50 [7]: 27.2 nM

CCCN(CCC)Cc1cc(Nc2ccnc3cc(Cl)ccc23)ccc1F
IC50 [7]: 85.2 nM

CCCCN(CCCC)Cc1cc(Nc2ccnc3cc(Cl)ccc23)ccc1Cl
IC50 [7]: 345 nM | IC50 [8]: 144 nM | IC50 [9]: 96.3 nM

CCNCc1cc(Nc2ccnc3cc(Cl)ccc23)ccc1O [DESETHYL AMODIAQUINE]
IC50 [13]: 58000 nM | IC50 [14]: 6400 nM | IC50 [15]: 54000 nM | IC50 [16]: 28000 nM | IC50 [17]: 20000 nM | IC50 [18]: 24000 nM | IC50 [19]: > 100000 nM

CC(C)N1CCN(Cc2cc(Nc3ccnc4cc(Cl)ccc34)ccc2Cl)CC1
logP [20]: 5.14 | IC50 [12]: 1.66 molar ratio | IC50 [8]: 9.1 nM | IC50 [9]: 6.4 nM

CCN(CC)CCCC(C)Nc1ccnc2cc(Cl)ccc12 (stereo not drawn) [CHLOROQUINE]
NOAEL at 96 h [21]: 300 mg/kg | Activity [22]: Toxic | NOAEL [23]: 300 mg/kg | Activity [24]: Toxic

c1ccncc1
log Ks [25]: 2.54 | log Ks [10]: 0.18 | log Ks [11]: 2.5 | log Ks [26]: 2.24

CN1CCN(Cc2cc(Nc3ccnc4cc(Cl)ccc34)ccc2F)CC1
IC50 [7]: 35.1 nM
